Laboratory results taken from article PMC9315981, “N-Phenacyldibromobenzimidazoles—Synthesis Optimization and Evaluation of Their Cytotoxic Activity” (Molecules, 2022).

Assays:
[1] = tested on: MRC-5 (normal lung fibroblasts); experiment: MTT-based viability assay, MRC-5; type: cell-based; conditions: Homo sapiens, MRC5, 48 h of treatment, read-out: EC50 ± SD, MRC-5
Procedure: (§1) To evaluate the cytotoxic activity of compounds 4a–j and 5a–5j, we performed an MTT test for three tumor cell lines, i.e.,: MCF-7 (breast adenocarcinoma), A-549 (lung adenocarcinoma), CCRF-CEM (acute lymphoblastic leukemia), and one normal cell line, MRC-5 (normal lung fibroblasts). The EC50 values, describing the half maximal effective concentration of each tested compound, were calculated and are summarized in Table 4. The representative sigmoidal dose–response curves are shown in Figure S2 (see Supporting Information S2).
(§2) CCRF-CEM (ECACC 85112105) human acute lymphoblastic leukaemia and MRC-5 pd30 Human fetal lung fibroblasts (ECACC 05090501) were purchased from European Collection of Authenticated Cell Cultures, whereas A-549 (ATCC CCL 185) human lung carcinoma and MCF-7 (ATCC HTB-22) human breast adenocarcinoma cell line were purchased from American Type Culture Collection. A-549 and MCF-7 cell lines were cultured in high glucose DMEM (Biowest) supplemented with 10% fetal bovine serum (Biowest), 2 mM L-glutamine and antibiotics (100 U/mL penicillin, 100 µg/mL streptomycin). CCRF-CEM were cultured in RPMI 1640 supplemented with 10% fetal bovine serum (EuroClone), 2 mM L-glutamine and antibiotics (100 U/mL penicillin, 100 µg/mL streptomycin). MRC-5 pd30 human fibroblasts (ECACC) were cultured in MEME, Minimum Essential Medium Eagle (Merck) supplemented with 10% fetal bovine serum (Merck), 2 mM l-glutamine, antibiotics (100 U mL^−1 penicillin, 100 μg mL^−1 streptomycin, Merck) and 1% non-essential amino-acids (Merck). Cells were grown in 75 cm^2 cell culture flasks (Sarstedt, Nümbrecht, Germany), in a humidified atmosphere of CO2/air (5/95%) at 37 °C. All the experiments were performed in exponentially growing cultures. Stock solution of tested compounds were prepared in DMSO and stored in −20 °C for maximum one month. For the cytotoxicity studies, stock solutions were diluted 200-fold with the proper culture medium to obtain the final concentrations. For cytotoxicity studies 2-fold serial dilutions of the tested compounds were prepared in the proper medium in the range from 3.125 µM to 200 µM.
(§3) After incubation with the test compounds, MTT test was performed as described previously. Optical densities were measured at 570 nm using BioTek microplate reader. All measurements were carried out in a minimum of three replicates.

[2] = tested on: A-549 (lung adenocarcinoma); experiment: MTT-based viability assay, A-549; type: cell-based; conditions: Homo sapiens, A549, 48 h of treatment, read-out: EC50 ± SD, A-549
Procedure: as §1, §2, §3

[3] = tested on: MCF-7 (breast adenocarcinoma); experiment: MTT-based viability assay, MCF-7; type: cell-based, human; conditions: for EC50: Homo sapiens, MCF7, MTT, 48 h of treatment, read-out: EC50 ± SD, MCF-7; for SI (selectivity index), MCF-7: SI = EC50 for normal MRC-5 line/EC50 for MCF-7
Procedure: as §1, §2, §3

[4] = tested on: CCRF-CEM (acute lymphoblastic leukemia); experiment: MTT-based viability assay, CCRF-CEM; type: cell-based, human; conditions: for EC50: Homo sapiens, CCRF-CEM, MTT, 48 h of treatment, read-out: EC50 ± SD, CCRF-CEM; for SI (selectivity index), CCRF-CEM: SI = EC50 for normal MRC-5 line/EC50 for CCRF-CEM
Procedure: as §1, §2, §3

[5] = tested on: CCRF-CEM cells; experiment: Detection of apoptosis by flow cytometry (annexin V-FITC/PI); type: cell-based, human; conditions: 48 h; for induction of apoptosis: annexin V binding
Procedure: CCRF-CEM cells were seeded in 24-well plates at 2 × 10^5 cells/well and treated with the tested compounds used in 15 µM, 30 µM, and 45 µM concentrations. After exposure to the examined compounds, the cells were collected, centrifugated at 200× g at 4 °C for 5 min, washed twice with cold phosphate–buffered saline (PBS), and subsequently suspended in binding buffer. Subsequently, 100-μL aliquots of the cell suspension were labelled according to the kit manufacturer’s instructions. Briefly, annexin V-fluorescein isothiocyanate, and propidium iodide (BD Biosciences, Pharmingen, San Diego, CA, USA) were added to the cell suspension, and the mixture was vortexed and then incubated for 15 min at RT in the dark. A cold binding buffer (400 μL) was then added and the cells were vortexed again and kept on ice. Flow cytometric measurements were performed within 1 h after labeling. Viable, necrotic, early, and late apoptotic cells were detected by FACSCanto II flow cytometer (BD Biosciences, San Diego, CA, USA) and analysed using BD FACSDiva software.
Figure 2 Effect of compounds 4f, 5g, and 5j on the progression of apoptosis/necrosis in CCRF-CEM. Percentage of viable, early, and late apoptotic, and necrotic cells after 48 h of treatment with the tested compounds (A). Percentage of CCRF-CEM cells in late apoptosis (B). Cells were stained with annexin V-FITC and PI (propidium iodide). Flow cytometry analyses were run on FACSCanto II flow cytometer (BD Biosciences, San Diego, CA, USA) and analysed using BD FACSDiva software. Graphs represent mean values ± s.e.m. *** p < 0.001 relative to control; ns—not significant. Statistical analysis for three to six independent replicates was performed using a one-way ANOVA analysis (GraphPad Software Inc., San Diego, CA, USA).

Row | SMILES | EC50 [1] [µM] | EC50 [2] [µM] | EC50 [3] [µM] | SI (selectivity index), MCF-7 [3] | EC50 [4] [µM] | SI (selectivity index), CCRF-CEM [4] | induction of apoptosis ([5]; 45 µM) | cells in late apoptosis ([5]; 30 µM, annexin V-FITC/PI) [%] | percent of apoptotic cells ([5]; 45 µM, annexin V-FITC/PI) [%]
1 | O=C(Cn1cnc2cc(Br)c(Br)cc21)c1ccccc1 [Compound 4a] | 51.4 ± 1.62 | 111 ± 11.7 | 37.6 ± 3.4 | 1.37 | 78.1 ± 5.58 | 0.66 | – | – | –
2 | O=C(Cn1cnc2cc(Br)c(Br)cc21)c1ccc(F)cc1 [Compound 4b] | 56.1 ± 4.33 | 54.5 ± 1.58 | 33 ± 2.63 | 1.70 | 44.1 ± 3.04 | 1.27 | – | – | –
3 | O=C(Cn1cnc2cc(Br)c(Br)cc21)c1ccc(Cl)cc1 [Compound 4c] | 54.24 ± 0.52 | 76.6 ± 3.08 | 49.1 ± 5.58 | 1.10 | 56.6 ± 4.48 | 0.96 | – | – | –
4 | O=C(Cn1cnc2cc(Br)c(Br)cc21)c1ccc(Cl)cc1Cl [Compound 4e] | – | 67.98 ± 0.41 | 60.3 ± 6.2 | 0.95 | 61.1 ± 2.76 | 0.94 | – | – | –
5 | O=C(Cn1cnc2cc(Br)c(Br)cc21)c1ccc(Cl)c(Cl)c1 [Compound 4f, 2-(5,6-dibromo-1H-benzimidazol-1-yl)-1-(3,4-dichlorophenyl)ethanone] | 48.5 ± 4.5 | 51.1 ± 2.78 | 26.4 ± 0.8 | 1.84 | 27.5 ± 2.46 | 1.76 | induced apoptosis effectively | – | –
6 | O=C(Cn1cnc2cc(Br)c(Br)cc21)c1c(Cl)cc(Cl)cc1Cl [Compound 4g] | 13.7 ± 0.63 | > 200 | 36.1 ± 1.47 | 0.38 | – | – | – | – | –
7 | O=C(Cn1cnc2cc(Br)c(Br)cc21)c1ccc(F)cc1F [Compound 4h] | 57.6 ± 0.71 | 54.1 ± 4.05 | 41.2 ± 3.85 | 1.40 | 59.9 ± 4.4 | 0.96 | – | – | –
8 | O=C(Cn1cnc2cc(Br)c(Br)cc21)c1cc(F)ccc1F [Compound 4i] | 47.8 ± 12 | 37.9 ± 1.72 | 29.6 ± 2.24 | 1.61 | 102 ± 8.62 | 0.47 | – | – | –
9 | O=C(Cn1cnc2cc(Br)c(Br)cc21)c1c(F)cc(F)cc1F [Compound 4j] | 48.8 ± 9.07 | 94.3 ± 6.47 | 37.6 ± 3.58 | 1.30 | 40.7 ± 1.03 | 1.20 | – | – | –
10 | O=C(Cn1cnc2c(Br)cc(Br)cc21)c1ccccc1 [Compound 5a] | 57.9 ± 0.88 | 81.2 ± 6.68 | 28.4 ± 1.11 | 2.04 | 183 ± 7.84 | 0.32 | – | – | –
11 | O=C(Cn1cnc2c(Br)cc(Br)cc21)c1ccc(F)cc1 [Compound 5b] | 49.2 ± 10.6 | 84.5 ± 3.09 | 45.93 ± 0.36 | 1.07 | – | – | – | – | –
12 | O=C(Cn1cnc2c(Br)cc(Br)cc21)c1ccc(Cl)cc1 [Compound 5c] | 39.1 ± 8.41 | 46.7 ± 1.2 | 30.4 ± 2.31 | 1.29 | 42.5 ± 8.36 | 0.92 | – | – | –
13 | O=C(Cn1cnc2c(Br)cc(Br)cc21)c1ccc(Br)cc1 [Compound 5d, 1-(4-bromophenyl)-2-(4,6-dibromo-1H-benzimidazol-1-yl)ethanone] | 45.1 ± 5.73 | 50.9 ± 2.84 | 27.8 ± 2.61 | 1.62 | 50.5 ± 1.52 | 0.89 | – | – | –
14 | O=C(Cn1cnc2c(Br)cc(Br)cc21)c1ccc(Cl)cc1Cl [Compound 5e] | 34.4 ± 7.83 | 46 ± 3.42 | 27.4 ± 1.57 | 1.25 | 38.4 ± 1.39 | 0.89 | – | – | –
15 | O=C(Cn1cnc2c(Br)cc(Br)cc21)c1ccc(Cl)c(Cl)c1 [Compound 5f] | 43.2 ± 12.1 | 40 ± 5.78 | 32.8 ± 1.88 | 1.32 | 40.6 ± 2.39 | 1.06 | – | – | –
16 | O=C(Cn1cnc2c(Br)cc(Br)cc21)c1c(Cl)cc(Cl)cc1Cl [Compound 5g, 2-(4,6-dibromo-1H-benzimidazol-1-yl)-1-(2,4,6-trichlorophenyl)ethanone] | 26.9 ± 1.62 | 41.3 ± 3.2 | 24 ± 2.33 | 1.12 | 26.6 ± 0.31 | 1.01 | induced apoptosis effectively | 32 | 75.6
17 | O=C(Cn1cnc2c(Br)cc(Br)cc21)c1ccc(F)cc1F [Compound 5h] | – | 61.26 ± 0.45 | 37 ± 2.15 | 1.23 | 51.2 ± 1.06 | 0.89 | – | – | –
18 | O=C(Cn1cnc2c(Br)cc(Br)cc21)c1cc(F)ccc1F [Compound 5i] | 48.07 ± 0.04 | 82.7 ± 10.6 | 44.8 ± 6.33 | 1.07 | 46.2 ± 3.24 | 1.04 | – | – | –
